Numbered stars: 1 amine (or outer) side, 2 acyl side, 3 side chain; on linkers, the order of the positions; unused ones are H or OH. Square brackets hold non-standard residues; d marks the D form. Peptide text beside a SMILES is read from it. Butanoyl(2R-oxy,4-CN) = N#CCC[C@@H](O)C(=O)O; X22 = CCCC[C@@H](C)C[C@H](N[*:1])C(=O)[*:2]; Abu(4,4,4-F3) = N[C@@H](CC(F)(F)F)C(=O)O; NMeAla(cPent) = CN[C@@H](CC1CCCC1)C(=O)O; X12 = O=C([C@H](CC1=CCCC1)N[*:1])[*:2]; Ala(cPent) = N[C@@H](CC1CCCC1)C(=O)O; NMeCha = CN[C@@H](CC1CCCCC1)C(=O)O; NMeF = CN[C@@H](Cc1ccccc1)C(=O)O; aIle = CC[C@@H](C)[C@H](N)C(=O)O; tBuAla = CC(C)(C)C[C@H](N)C(=O)O; NMeL = CN[C@@H](CC(C)C)C(=O)O; hLeu = CC(C)CC[C@H](N)C(=O)O; NMeA = CN[C@@H](C)C(=O)O; Nle = CCCC[C@H](N)C(=O)O; Nva = CCC[C@H](N)C(=O)O; dLac = C[C@@H](O)C(=O)O; Abu = CC[C@H](N)C(=O)O
Tests used:
Type in all cases: cell-based
[1] = test system: NCI-H929 multiple myeloma cell line; assay: H929 assay (cell viability, Celltiter-Glo); conditions: Homo sapiens, NCI-H929; 48 hours, cell viability; read-out: H929 EC50
Protocol: The human multiple myeloma cell line NCI-H929 was cultured in Advanced RPMI 1640 media (Gibco@) supplemented with 6% fetal bovine serum, 2 mM Glutamine, and 1× Penicillin/Streptomycin. On the day of assay, cells were resuspended in RPMI 1640 media supplemented with 10% fetal bovine serum, 2 mM Glutamine, and 1× Penicillin/Streptmycin and plated in 384-well tissue culture plates and treated with compound dilutions in DMSO/media. Plates were incubated at 37° C., 5% CO2 for 48 hours. After 48 hours, Celltiter-Glo@ (Promega) was added to each well and luciferase signal was quantified using Tecan Infinite M1000 Pro for cell viability determination.

[2] = test system: PD1-ss+10aa/Gaussia Luciferase; assay: Dox induced PD1-ss-Gluc assay; conditions: Flp-In 293 T-REx cells, doxycycline, 24 hours; read-out: PD1ss Gluc IC50
Excerpt: Dox Induced PD1-ss-Gluc Assay
Flp-In 293 T-REx™ cells were transfected with pcDNA™5/FRT/TO plasmid inserted with cDNA encoding Gaussia Luciferase fused to the 3′ end of cDNA encoding PD1 signal sequence plus 10 amino acids (N-[…]-C) (SEQ ID NO:3). Transfected cells were selected for resistance to the selectable markers Hygromycin and Blasticidin to create a stable cell line that contained the PD1-ss+10aa/Gaussia Luciferase cDNA insert whose expression was regulated under the T-REx™ system. The day before assay, cells were trypsinized and plated in 384-well tissue culture plates. The next day, compound dilutions in DMSO/media containing doxycycline were added to the wells and incubated at 37° C., 5% CO2.

[3] = test system: TNFα-FL/Gaussia Luciferase; assay: Dox induced TNFα-FL-Gluc assay; conditions: Flp-In 293 T-REx cells, doxycycline, 24 hours; read-out: TNFa FL Gluc IC50
Excerpt: Dox Induced TNFα-FL-Gluc Assay
Flp-In 293 T-REx™ cells were transfected with pcDNA™5/FRT/TO plasmid inserted with cDNA encoding Gaussia Luciferase fused to the 3′ end of cDNA encoding full length TNFα (amino acids 1-233). Transfected cells were selected for resistance to the selectable markers Hygromycin and Blasticidin to create a stable cell line that contained the TNFα-FL/Gaussia Luciferase cDNA insert whose expression was regulated under the T-REx™ system. The day before assay, cells were trypsinized and plated in 384-well tissue culture plates. The next day, compound dilutions in DMSO/media containing doxycycline were added to the wells and incubated at 37° C., 5% CO2.

Compound | EC50 [1] | IC50 [2] | IC50 [3]
CCCC[C@@H](C)C[C@@H]1NC(=O)[C@H](Cc2ccccc2)N(C)C(=O)[C@H](CC(C)C)NC(=O)[C@H](CC(C)C)N(C)C(=O)[C@H](CC)NC(=O)[C@@H](C)OC(=O)[C@H](C)N(C)C1=O [C-06] (HELM PEPTIDE1{[Abu].[meL].L.[meF].[CCCC[C@@H](C)C[C@H](N[*:1])C(=O)[*:2]].[meA].[C[C@@H](O[*:1])C(=O)[*:2]]}$PEPTIDE1,PEPTIDE1,1:R1-7:R2$$$V2.0) | 6710 nM |  | 
CCCC[C@@H](C)C[C@@H]1NC(=O)[C@H](Cc2ccccc2)N(C)C(=O)[C@H](CC(C)C)NC(=O)[C@H](CC(C)C)N(C)C(=O)[C@H](CC(F)(F)F)NC(=O)[C@@H](C)OC(=O)[C@H](C)N(C)C1=O [C-03] (cyclo(L[NMeF][X22][NMeA][dLac][Abu(4,4,4-F3)][NMeL])) | 5070 nM | 385 nM | 525 nM
CC(C)C[C@@H]1NC(=O)[C@H](Cc2nc(C(C)(C)C)cs2)N(C)C(=O)[C@H](CC(C)C)NC(=O)[C@H](CC(C)C)N(C)C(=O)[C@H](CC(C)C)NC(=O)[C@@H](CCC#N)OC(=O)[C@H](C)N(C)C1=O [C-68] (HELM PEPTIDE1{L.[meA].[N#CCC[C@@H](O[*:1])C(=O)[*:2]].L.[meL].L.[CN([C@@H](Cc1nc(C(C)(C)C)cs1)C(=O)[*:2])[*:1]]}$PEPTIDE1,PEPTIDE1,1:R1-7:R2$$$V2.0) | 11200 nM | 1060 nM | 
CCCC[C@@H](C)C[C@@H]1NC(=O)[C@H](Cc2ccccc2)N(C)C(=O)[C@H](CC(C)C)NC(=O)[C@H](CC(C)C)N(C)C(=O)[C@H](CC(C)C)NC(=O)[C@@H](C)OC(=O)[C@H](C)N(C)C1=O [C-08] (HELM PEPTIDE1{L.[meF].[CCCC[C@@H](C)C[C@H](N[*:1])C(=O)[*:2]].[meA].[C[C@@H](O[*:1])C(=O)[*:2]].L.[meL]}$PEPTIDE1,PEPTIDE1,1:R1-7:R2$$$V2.0) | 4460 nM | 360 nM | 526 nM
CCCC[C@@H](C)C[C@@H]1NC(=O)[C@H](CC2CCCCC2)N(C)C(=O)[C@H](CC(C)C)NC(=O)[C@H](CC(C)C)N(C)C(=O)[C@H](CCCC)NC(=O)[C@@H](CCC#N)OC(=O)[C@H](C)N(C)C1=O [C-53] (cyclo(L[NMeCha][X22][NMeA][Butanoyl(2R-oxy,4-CN)][Nle][NMeL])) | 5860 nM | 495 nM | 1560 nM
CCCC[C@@H](C)C[C@@H]1NC(=O)[C@H](CC2CCCC2)N(C)C(=O)[C@H](CC(C)C)NC(=O)[C@H](CC(C)C)N(C)C(=O)[C@H](C[C@H](C)CCCC)NC(=O)[C@@H](CCC#N)OC(=O)[C@H](C)N(C)C1=O [C-22] (cyclo(L[NMeAla(cPent)][X22][NMeA][Butanoyl(2R-oxy,4-CN)][X22][NMeL])) | 950 nM | 115 nM | 236 nM
CCCC[C@@H](C)C[C@@H]1NC(=O)[C@H](CC2CCCCC2)N(C)C(=O)[C@H](CC(C)C)NC(=O)[C@H](CC(C)C)N(C)C(=O)[C@H](CC2=CCCC2)NC(=O)[C@@H](CCC#N)OC(=O)[C@H](C)N(C)C1=O [C-55] (cyclo(L[NMeCha][X22][NMeA][Butanoyl(2R-oxy,4-CN)][X12][NMeL])) | 1870 nM | 119 nM | 464 nM
CC(C)C[C@@H]1NC(=O)[C@H](Cc2ccc3ccccc3c2)N(C)C(=O)[C@H](CC(C)C)NC(=O)[C@H](CC(C)C)N(C)C(=O)[C@H](CC(C)C)NC(=O)[C@@H](CCC#N)OC(=O)[C@H](C)N(C)C1=O [C-66] (HELM PEPTIDE1{L.[CN([C@@H](Cc1ccc2ccccc2c1)C(=O)[*:2])[*:1]].L.[meA].[N#CCC[C@@H](O[*:1])C(=O)[*:2]].L.[meL]}$PEPTIDE1,PEPTIDE1,1:R1-7:R2$$$V2.0) | 8800 nM | 1040 nM | 2800 nM
CCCC[C@@H](C)C[C@@H]1NC(=O)[C@H](Cc2ccccc2)N(C)C(=O)[C@H](CC)NC(=O)[C@H](CC(C)C)N(C)C(=O)[C@H](C[C@H](C)CCCC)NC(=O)[C@@H](C)OC(=O)[C@H](C)N(C)C1=O [C-05] (cyclo([Abu][NMeF][X22][NMeA][dLac][X22][NMeL])) | 1190 nM | 75 nM | 115 nM
CCCC[C@@H](C)C[C@@H]1NC(=O)[C@H](Cc2ccccc2)N(C)C(=O)[C@H](CC(C)C)NC(=O)[C@H](CC(C)C)N(C)C(=O)[C@H](CC(F)(F)F)NC(=O)[C@@H](CCC#N)OC(=O)[C@H](C)N(C)C1=O [C-09] (cyclo(L[NMeF][X22][NMeA][Butanoyl(2R-oxy,4-CN)][Abu(4,4,4-F3)][NMeL])) | 1820 nM | 114 nM | 158 nM
CCCC[C@@H](C)C[C@@H]1NC(=O)[C@H](CC2CCCCC2)N(C)C(=O)[C@H](CC(C)C)NC(=O)[C@H](CC(C)C)N(C)C(=O)[C@H](CCC(C)C)NC(=O)[C@@H](CCC#N)OC(=O)[C@H](C)N(C)C1=O [C-60] (cyclo(L[NMeCha][X22][NMeA][Butanoyl(2R-oxy,4-CN)][hLeu][NMeL])) | 4730 nM | 335 nM | 1120 nM
CCCC[C@@H](C)C[C@@H]1NC(=O)[C@@H](CCC#N)OC(=O)[C@H](C)N(C)C(=O)[C@H](CC(F)(F)F)NC(=O)[C@H](Cc2ccccc2)N(C)C(=O)[C@H](CC(C)C)NC(=O)[C@H](CC(C)C)N(C)C1=O [C-26] (cyclo(L[NMeF][Abu(4,4,4-F3)][NMeA][Butanoyl(2R-oxy,4-CN)][X22][NMeL])) | 1010 nM | 59 nM | 92 nM
CCCC[C@@H](C)C[C@@H]1NC(=O)[C@H](CC2CCCCC2)N(C)C(=O)[C@H](CC(C)C)NC(=O)[C@H](CC(C)C)N(C)C(=O)[C@H](CC(C)C)NC(=O)[C@@H](CCC#N)OC(=O)[C@H](C)N(C)C1=O [C-21] (cyclo(L[NMeCha][X22][NMeA][Butanoyl(2R-oxy,4-CN)]L[NMeL])) | 3400 nM | 212 nM | 716 nM
CCCC[C@@H](C)C[C@@H]1NC(=O)[C@H](CC2CCCCC2)N(C)C(=O)[C@H](CC(C)C)NC(=O)[C@H](CC(C)C)N(C)C(=O)[C@H]([C@H](C)CC)NC(=O)[C@@H](CCC#N)OC(=O)[C@H](C)N(C)C1=O [C-62] (cyclo(L[NMeCha][X22][NMeA][Butanoyl(2R-oxy,4-CN)][aIle][NMeL])) | 4220 nM | 277 nM | 1660 nM
CCCC[C@@H](C)C[C@@H]1NC(=O)[C@H](CC2CCCCC2)N(C)C(=O)[C@H](CC(C)C)NC(=O)[C@H](CC(C)C)N(C)C(=O)[C@H](CCC)NC(=O)[C@@H](CCC#N)OC(=O)[C@H](C)N(C)C1=O [C-19] (cyclo(L[NMeCha][X22][NMeA][Butanoyl(2R-oxy,4-CN)][Nva][NMeL])) | 5150 nM | 374 nM | 1390 nM
CCCC[C@@H](C)C[C@@H]1NC(=O)[C@H](Cc2ccccc2)N(C)C(=O)[C@H](CCC)NC(=O)[C@H](CC(C)C)N(C)C(=O)[C@H](C[C@H](C)CCCC)NC(=O)[C@@H](C)OC(=O)[C@H](C)N(C)C1=O [C-04] (cyclo([NMeA][dLac][X22][NMeL][Nva][NMeF][X22])) | 1260 nM | 86 nM | 104 nM
CCCC[C@@H](C)C[C@@H]1NC(=O)[C@H](CC2CCCCC2)N(C)C(=O)[C@H](CC2CCCC2)NC(=O)[C@H](CC(C)C)N(C)C(=O)[C@H](CC(C)C)NC(=O)[C@@H](CCC#N)OC(=O)[C@H](C)N(C)C1=O [C-54] (cyclo([Ala(cPent)][NMeCha][X22][NMeA][Butanoyl(2R-oxy,4-CN)]L[NMeL])) |  | 2140 nM | 
CCCC[C@@H](C)C[C@@H]1NC(=O)[C@H](CC2CCCCC2)N(C)C(=O)[C@H](CC(C)C)NC(=O)[C@H](CC(C)C)N(C)C(=O)[C@H](C(C)C)NC(=O)[C@@H](CCC#N)OC(=O)[C@H](C)N(C)C1=O [C-20] (cyclo(L[NMeCha][X22][NMeA][Butanoyl(2R-oxy,4-CN)]V[NMeL])) | 5300 nM | 432 nM | 1680 nM
CCCC[C@@H](C)C[C@@H]1NC(=O)[C@H](CC2CCCCC2)N(C)C(=O)[C@H](CC(C)C)NC(=O)[C@H](CC(C)C)N(C)C(=O)[C@H](CC(C)(C)C)NC(=O)C(CCC#N)OC(=O)[C@H](C)N(C)C1=O (stereo in doubt) [C-52] |  | 751 nM | 5730 nM
CCCC[C@@H](C)C[C@@H]1NC(=O)[C@H](CC2CCCCC2)N(C)C(=O)[C@H](CC(C)(C)C)NC(=O)[C@H](CC(C)C)N(C)C(=O)[C@H](CC(C)C)NC(=O)[C@@H](CCC#N)OC(=O)[C@H](C)N(C)C1=O [C-63] (cyclo(L[NMeL][tBuAla][NMeCha][X22][NMeA][Butanoyl(2R-oxy,4-CN)])) |  | 3050 nM | 

Source: patent US11339193B2, “CDP protein secretion inhibitors” (KEZAR LIFE SCIENCES, priority 2018, dated 2022)
